Values joined by “and” are separate entries in the source; they are usually repeats but may differ in a detail not shown here. Equal values may be shown once. Read-outs that look alike come from different tables or passages of the source.
Key:
[1] = system: total HBV core protein in Huh-7 cells; type: cell-based, Hepatitis B virus
Experimental: the indicated times. The cells were lysed and assembled HBV core particles were isolated by sucrose step-gradient ultracentrifugation, resolved on 1 % agarose gels, and subjected to immunoblot analysis with anti-HBV core antibody. Total intracellular HBV core protein was also determined by immunoblot analysis in the cell lysates. Core mRNA levels were measured by quantitative RT-PCR. The data

in vitro = type: cell-based, human; conditions: human, Cell viability(%)
Experimental: Supplementary Fig. 11. Effect of FBS serum iron level on Huh-7, HepG2, and HepG2.2.15 cell
a Cells were maintained in medium supplemented with 2% FBS or 10% FBS for 1 day and treated with
After 6 days, cytotoxicity was measured. b Cells were treated with
the ± SD. *p < 0.05 by unpaired two-tailed Student’s t-test.

[2] = target: T1, Cp149 (truncated HBV core protein) (Hepatitis B virus genotype D subtype ayw, UniProt P03146); test: Electron microscopy of HBV capsid assembly in vitro; type: biochemical
T1 construct: Cp149 (amino acids 1–149) is a truncated form of the HBV core protein; made in house; host or cells: Escherichia coli

[3] = system: HBV (genotype D) in HepG2-NTCP cells; test: In vitro HBV infection model, HepG2-NTCP cells: secreted HBV DNA
[4] = system: intracellular HBV DNA in HepG2.2.15 and HBV 1.2X adr transfected HepG2 cells; test: Southern blot analysis of intracellular HBV DNA; type: cell-based, Hepatitis B virus; conditions: Fig. 4c
[5] = system: HBV transcripts in HepG2 cells transfected with pHBV1.2×; test: HBV transcription in HepG2 cells transfected with pHBV1.2×, quantitative RT-PCR; type: cell-based, Hepatitis B virus
Experimental: Quantitative RT-PCR with primers that detect three HBV regions (R1, R2, and R3, Supplementary Table 1) was used to measure HBV transcription. This RT-PCR detects pgRNA and precore RNA (3.5 kB), two HBV surface-encoding RNAs (2.5 kB and 2.1 kB), and HBx-encoding RNA (0.7 kB)[55]. PCR conditions were 95 °C for 10 min initially, then 50 cycles of 95 °C for 30 s, 60 °C for 60 s and 72 °C for 30 s, and finally 1 cycle of 95 °C for 60 s, 55 °C for 30 s and 95 °C for 30 s. […]
a Schematic depiction of the R1, R2, and R3 regions of the HBV genome that were targeted by quantitative RT-PCR to quantitate the transcription of pgRNA, two HBV surface RNAs, and HBx RNA. […]
c Region 3 transcription in ciclopirox-treated (b) HepG2.2.15 cells and (c) HepG2 cells transfected with the pHBV1.2× plasmid. d The promoter analysis of ciclopirox-treated HepG2 cells transfected with pGL3/HBV pgRNA promoter or pGL3/HBV sRNA promoter. The data shown in (b – d) represent two

[6] = system: HBV cccDNA in Huh-7-NTCP cells; test: In vitro HBV infection model, Huh-7-NTCP cells: intracellular cccDNA
[7] = system: HBV rcDNA in Huh-7-NTCP cells; test: In vitro HBV infection model, Huh-7-NTCP cells: intracellular HBV rcDNA
[8] = target: HBV core protein Y118F mutant in Huh-7 cells (Hepatitis B virus genotype C, UniProt P0C6H6, Y118F); test: Intracellular HBV capsid assembly, Huh-7 cells transfected with pCDNA3-Core Y118F; type: cell-based
[9] = system: HBV replicative plasmid pAAV-HBV1.2× in C57BL/6 mice; test: Hydrodynamic injection mouse model (pAAV-HBV1.2×, C57BL/6 mice); type: in vivo
[10] = system: HBV cccDNA in HepG2-NTCP cells; test: In vitro HBV infection model, HepG2-NTCP cells: intracellular cccDNA
[11] = system: HBV rcDNA in HepG2-NTCP cells; test: In vitro HBV infection model, HepG2-NTCP cells: intracellular HBV rcDNA
[12] = ref https://www.drugbank.ca/; cited from earlier work
[13] = system: HBV (genotype D) in PXB mice; conditions: mouse, in vivo
BALB/c male mice = conditions: mouse, in vivo, po
Experimental: Five mice were included in each group. Mortality was monitored daily, and bodyweight was measured every other day. On day 28, blood was taken from the orbital sinus, and white blood cells, red blood cells and platelets were counted. Blood urea nitrogen, creatinine, glucose, total bilirubin, total cholesterol, triglyceride, albumin, total protein, aspartate aminotransferase, alanine aminotransferase (ALT), sodium, potassium, and chloride were measured. Urinalysis was performed including urobilinogen, glucose, bilirubin, ketone, specific gravity, blood, pH, protein, nitrate, and leukocytes.
Supplementary Table 3. Mean numbers of blood cells, and parameters for kidney and liver
Data are expressed as means ± standard deviations.
Abbreviations: WBC, white blood cell, AST, aspartate transaminase; ALT, alanine transaminase; ALP,
alkaline phosphatase; BUN, blood urea nitrogen; Na, sodium; K, potassium; Cl. Chloride; S.G, specific

[14] = system: HBV (pHBV1.2× adr) in transfected HepG2 cells; test: microbe, parasite or virus in culture; type: cell-based, Hepatitis B virus; conditions: Hepatitis B virus, HepG2, 144 h; HBV1.2× adr transfected cells, 6 days; read-out: IC50, intracellular HBV DNA
[15] = 5 mg per kg oral daily, by day 5

SMILES: Cc1cc(C2CCCCC2)n(O)c(=O)c1 [Ciclopirox, 6-cyclohexyl-1-hydroxy-4-methyl-2(1 H)-pyridone]
- Total denatured HBV core protein ([1]; 36 h): not affected
- total core protein ([1]; treatment time increased): decreased
- viability at 0.1 µM (in vitro; AVERAGE): 99.9%
- viability at 0.2 µM (in vitro; AVERAGE): 99.8%
- viability at 0.5 µM (in vitro; AVERAGE): 99.7%
- viability at 1 µM (in vitro; AVERAGE): 99.7%
- viability at 2 µM (in vitro; AVERAGE): 98%
- viability at 5 µM (in vitro; AVERAGE): 96.5%
- viability at 10 µM (in vitro; AVERAGE): 94.6%
- viability at 0.1 µM (in vitro; individual samples): 98.5%
- viability at 0.2 µM (in vitro; individual samples): 98.3%
- viability at 0.5 µM (in vitro; individual samples): 98.2%
- viability at 1 µM (in vitro; individual samples): 96.6%
- viability at 2 µM (in vitro; individual samples): 95.4%
- viability at 5 µM (in vitro; individual samples): 91.5%
- HBV capsid morphology (EM) [2]: HBV capsid morphology was altered
- secretion of HBV DNA [3]: dropped markedly
- intracellular HBV DNA levels (Southern blot) [4]: reduced intracellular HBV DNA levels in a dose-dependent manner
- HBV transcripts levels [5]: no effect
- cccDNA levels [6]: dropped markedly
- intracellular relaxed circular DNA levels [7]: dropped markedly
- reduction in sensitivity of Y118F compared with the wild-type [8]: approximately 4 fold
- HBV core protein levels in the liver [9, 15]: reduced HBV core protein levels in the liver
- serum HBV DNA levels [9, 15]: significantly lowered serum HBV DNA levels
- HBsAg, AVERAGE ([9]; mouse, in vivo): 278.443 ng/mL and 288.165 ng/mL and 304.224 ng/mL and 310.116 ng/mL
- cccDNA levels [10]: dropped markedly
- intracellular relaxed circular DNA levels [11]: dropped markedly
- pKa value (acidic) [12]: 6.84
- Serum HBV DNA, AVERAGE [13]: 6.24 log copies/mL
- Serum HBV DNA, individual samples [13]: 6.248 log copies/mL and 5.238 log copies/mL and 7.238 log copies/mL
- cccDNA, AVERAGE [13]: 0.2214 log copies/cell
- cccDNA, individual samples [13]: 0.22 log copies/cell and 0.29 log copies/cell and 0.16 log copies/cell
- HBV core protein levels in the liver ([13]; po): significantly reduced HBV core protein levels in the liver
- HBeAg levels ([13]; po): significantly decreased HBeAg levels
- Serum ALT levels ([13]; po): decreased
- intrahepatic cccDNA ([13]; po): significantly reduced the amount of intrahepatic cccDNA
- serum HBV DNA levels ([13]; po): lowered serum HBV DNA levels significantly
- serum HBV DNA levels, combined with TDF ([13]; po): these effects were enhanced when it was combined with TDF
- Cl (BALB/c male mice; 1 mg/kg/day): 100.0 ± 1.0 mmol/L
- Cl (BALB/c male mice; 5 mg/kg/day): 99.0 ± 1.0 mmol/L
- IC50 [14]: 0.8 ± 0.18 µM

From PMC6522524 (Nature Communications, 2019)
